Results as given in paper PMC5332327 (Journal of the American Chemical Society, 2017).

Target: Nan[KS1][AT1] (Streptomyces nanchangensis, UniProt Q7WTF5)
Experiment: coupled KS-KR assay, chiral GC-MS of diketide methyl ester
Assay type: biochemical
Conditions: holo-NanACP1, NADPH, KR domain, pH 7.2

Chain of Nan[KS1][AT1] (Q7WTF5 1029-1965): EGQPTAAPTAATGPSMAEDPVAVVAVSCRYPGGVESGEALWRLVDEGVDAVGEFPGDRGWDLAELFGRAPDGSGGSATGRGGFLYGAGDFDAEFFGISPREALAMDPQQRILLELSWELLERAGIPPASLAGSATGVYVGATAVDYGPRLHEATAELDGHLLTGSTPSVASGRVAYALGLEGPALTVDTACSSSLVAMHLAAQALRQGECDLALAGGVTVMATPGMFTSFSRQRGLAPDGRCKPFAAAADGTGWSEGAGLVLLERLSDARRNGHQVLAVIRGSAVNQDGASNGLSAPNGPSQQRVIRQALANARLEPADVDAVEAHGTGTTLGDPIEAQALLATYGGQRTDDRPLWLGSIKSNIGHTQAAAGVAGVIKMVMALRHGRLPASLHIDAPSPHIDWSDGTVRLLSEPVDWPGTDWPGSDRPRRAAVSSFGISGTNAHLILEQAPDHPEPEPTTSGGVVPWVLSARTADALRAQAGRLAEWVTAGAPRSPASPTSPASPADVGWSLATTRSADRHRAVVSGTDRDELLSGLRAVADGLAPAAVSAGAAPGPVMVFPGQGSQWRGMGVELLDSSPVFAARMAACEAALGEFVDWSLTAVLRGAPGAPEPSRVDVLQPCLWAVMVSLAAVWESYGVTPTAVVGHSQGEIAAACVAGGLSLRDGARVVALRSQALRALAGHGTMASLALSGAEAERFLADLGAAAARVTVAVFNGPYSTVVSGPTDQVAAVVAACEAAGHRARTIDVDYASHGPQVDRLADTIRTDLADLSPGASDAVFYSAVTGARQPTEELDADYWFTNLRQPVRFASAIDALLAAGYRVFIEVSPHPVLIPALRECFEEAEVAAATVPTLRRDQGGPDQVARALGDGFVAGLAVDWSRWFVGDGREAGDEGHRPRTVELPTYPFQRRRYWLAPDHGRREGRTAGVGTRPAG

| SMILES | coupled KS-KR assay, chiral GC-MS of diketide methyl ester (5 mM propionyl-SNAC, methylmalonyl-CoA, primer) | coupled KS-KR assay, chiral GC-MS of diketide methyl ester (300 uM methylmalonyl-CoA, propionyl-SNAC, extender) |
| --- | --- | --- |
| CCC(=O)SCCNC(C)=O [propionyl-SNAC] | condensation between propionyl-SNAC and methylmalonyl-CoA catalyzed by the polyether synthase didomain Nan[KS1][AT1] |  |
| CC(C(=O)O)C(=O)SCCNC(=O)CCNC(=O)[C@H](O)C(C)(C)COP(=O)(O)OP(=O)(O)OC[C@H]1O[C@@H](n2cnc3c(N)ncnc32)[C@H](O)[C@@H]1OP(=O)(O)O (some centres unmarked) [methylmalonyl-CoA] |  | condensation between propionyl-SNAC and methylmalonyl-CoA catalyzed by the polyether synthase didomain Nan[KS1][AT1] |
